Results taken from patent US6441019B2, “Cyclocarbamate and cyclic amide derivatives” (Wyeth, priority 1999, dated 2002).

melting point [°C] | SMILES
149 to 150 | CC1(C)OC(=O)Nc2sc(-c3cccc(Cl)c3)cc21 [Example 1, 6-(3-chlorophenyl)-1,4-dihydro-4,4-dimethyl-2H-thieno [2,3-d][1,3]oxazine-2-one]
123 to 125 | CC1(C)OC(=O)Nc2cc(-c3cccc(Cl)c3)sc21 [Example 2, 6-(3-chlorophenyl)-1,4-dihydro-4,4-dimethyl-2H-thieno[3,2-d][1,3]oxazine-2-one]
